According to the supplement of paper PMC10307832:

Columns and labels:
Experiment in all cases: relative viability (nuclei count vs DMSO), 5 days (fraction); higher = more cells survive
[1] = compound: O=C(Nc1cc(C(F)(F)F)cc(C(F)(F)F)c1)c1cc(Cl)ccc1O [IMD-0354] + N=C(N)NC(=N)NCCc1ccccc1 [Phenformin] (partner 250 µM)
Outline: (§1)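 Relative viability divides the nuclei count in treated wells by that in vehicle wells. Lung cancer cell lines were seeded in 1536-well plates, dosed by pin tool the next day, and fixed and stained after 5 days in one step with final 0.05% Triton X-100, 1% formaldehyde and 1 ug/ml Hoechst. Dosing was a single drug or a fixed anchor-drug dose plus five library-drug doses (not always all listed) in √10 steps, and values are medians of duplicate plates imaged at 4×.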

[2] = compound: Cc1cnc(CNC(=O)c2c(=O)c3ccc(N4CCCN(C)CC4)nc3n3c2sc2ccccc23)cn1 [CX-5461] + CS(=O)(=O)N1CCN(Cc2cc3nc(-c4cccc5[nH]ncc45)nc(N4CCOCC4)c3s2)CC1 [Pictilisib] (partner 1 µM)
Outline: as §1

[3] = compound: Cc1cnc(CNC(=O)c2c(=O)c3ccc(N4CCCN(C)CC4)nc3n3c2sc2ccccc23)cn1 [CX-5461] + CC(=O)Nc1cccc(-n2c(=O)n(C3CC3)c(=O)c3c(Nc4ccc(I)cc4F)n(C)c(=O)c(C)c32)c1 [Trametinib] (partner 0.02 µM)
Outline: as §1

[4] = compound: Cc1cnc(CNC(=O)c2c(=O)c3ccc(N4CCCN(C)CC4)nc3n3c2sc2ccccc23)cn1 [CX-5461] + NC(=O)Nc1cc(-c2cccc(F)c2)sc1C(=O)N[C@H]1CCCNC1 [AZD7762] (partner 0.2 µM)
Outline: as §1

Row | Cell Line | relative viability ([1]; first compound 0.04 µM) | relative viability ([1]; first compound 0.1265 µM) | relative viability ([1]; first compound 0.4 µM) | relative viability ([1]; first compound 1.265 µM) | relative viability ([1]; first compound 4 µM) | relative viability ([2]; first compound 0.01 µM) | relative viability ([2]; first compound 0.03162 µM) | relative viability ([2]; first compound 0.1 µM) | relative viability ([2]; first compound 0.3162 µM) | relative viability ([2]; first compound 1 µM) | relative viability ([3]; first compound 0.01 µM) | relative viability ([3]; first compound 0.03162 µM) | relative viability ([3]; first compound 0.1 µM) | relative viability ([3]; first compound 0.3162 µM) | relative viability ([3]; first compound 1 µM) | relative viability ([4]; first compound 0.01 µM) | relative viability ([4]; first compound 0.03162 µM) | relative viability ([4]; first compound 0.1 µM) | relative viability ([4]; first compound 0.3162 µM) | relative viability ([4]; first compound 1 µM)
1 | HCC-366 | 0.574 | 0.562 | 0.276 | 0.0732 | 0.0339 | 0.133 | 0.142 | 0.142 | 0.0964 | 0.162 | 0.345 | 0.389 | 0.443 | 0.412 | 0.306 | 0.285 | 0.254 | 0.177 | 0.117 | 0.0411
2 | BEN | 0.248 | 0.267 | 0.229 | 0.179 | 0.174 | 0.662 | 0.573 | 0.6 | 0.543 | 0.534 | 0.936 | 0.96 | 1.11 | 1.17 | 1.04 | 0.737 | 0.615 | 0.555 | 0.745 | 0.531
3 | NCI-H23 | 0.811 | 0.81 | 0.313 | 0.198 | 0.189 | 0.449 | 0.501 | 0.488 | 0.292 | 0.362 | 0.421 | 0.372 | 0.407 | 0.442 | 0.285 | 0.23 | 0.224 | 0.186 | 0.212 | 0.167
4 | NCI-H1793 | 0.386 | 0.344 | 0.157 | 0.163 | 0.147 | 0.202 | 0.311 | 0.344 | 0.212 | 0.402 | 0.386 | 0.519 | 0.364 | 0.411 | 0.353 | 0.61 | 0.44 | 0.313 | 0.391 | 0.168
5 | 201T | 0.524 | 0.465 | 0.322 | 0.286 | 0.303 | 0.713 | 0.748 | 0.753 | 0.708 | 0.721 | 0.706 | 0.73 | 0.693 | 0.75 | 0.721 | 0.6 | 0.682 | 0.621 | 0.543 | 0.491
6 | NCI-H358 | 0.348 | 0.241 | 0.17 | 0.121 | 0.0927 | 0.29 | 0.323 | 0.249 | 0.19 | 0.316 | 0.125 | 0.108 | 0.0974 | 0.102 | 0.0846 | 0.546 | 0.593 | 0.372 | 0.474 | 0.363
7 | NCI-H460 | 0.514 | 0.365 | 0.103 | 0.0203 | 0.0155 | 0.462 | 0.338 | 0.366 | 0.108 | 0.2 | 0.21 | 0.142 | 0.0583 | 0.0956 | 0.0222 | 0.627 | 0.513 | 0.295 | 0.563 | 0.046
8 | HCC-15 | 0.466 | 0.37 | 0.188 | 0.0833 | 0.165 | 0.753 | 0.933 | 0.749 | 0.239 | 0.495 | 0.419 | 0.31 | 0.383 | 0.376 | 0.34 | 1.24 | 1.43 | 1.22 | 1.15 | 1.23
9 | LCLC-103H | 0.39 | 0.304 | 0.197 | 0.214 | 0.177 | 0.588 | 0.611 | 0.603 | 0.483 | 0.619 | 0.629 | 0.687 | 0.626 | 0.674 | 0.663 | 0.823 | 0.829 | 0.819 | 0.68 | 0.762
10 | NCI-H441 | 0.79 | 0.693 | 0.45 | 0.177 | 0.262 | 0.376 | 0.515 | 0.505 | 0.382 | 0.339 | 0.451 | 0.552 | 0.441 | 0.429 | 0.24 | 1 | 1.31 | 1.11 | 1.36 | 0.963
11 | EPLC-272H | 0.34 | 0.199 | 0.304 | 0.0841 | 0.0653 | 0.306 | 0.353 | 0.339 | – | 0.335 | 0.27 | 0.308 | 0.268 | – | 0.318 | 0.208 | 0.25 | 0.215 | – | 0.259
